# Laboratory results from PubChem BioAssay (NCI).
#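 Each compound was tested at five concentrations against cells in 96-well plates for 48 hours. TGI denotes the concentration required for complete inhibition of growth.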
# How the values were obtained:
# Experiment in all cases: NCI-60 cell line screen, 48 h
# SF-295 CNS = system: SF-295 CNS
# MOLT-4 leukemia = system: MOLT-4 leukemia
# OVCAR-4 ovarian = system: OVCAR-4 ovarian
# MDA-MB-231 breast = system: MDA-MB-231 breast
# SK-MEL-5 melanoma = system: SK-MEL-5 melanoma
# HCT-15 colon = system: HCT-15 colon
# TK-10 renal = system: TK-10 renal
# SN12C renal = system: SN12C renal
# HCC-2998 colon = system: HCC-2998 colon
# NCI-H522 lung = system: NCI-H522 lung
# HS 578T breast = system: HS 578T breast
# T-47D breast = system: T-47D breast
# PC-3 prostate = system: PC-3 prostate
# SF-539 CNS = system: SF-539 CNS
# EKVX NSCLC = system: EKVX NSCLC
# UACC-257 melanoma = system: UACC-257 melanoma
# COLO 205 colon = system: COLO 205 colon
# U251 CNS = system: U251 CNS
# HL-60(TB) leukemia = system: HL-60(TB) leukemia
# UO-31 renal = system: UO-31 renal
# NCI-H460 lung = system: NCI-H460 lung
# NCI/ADR-RES ovarian = system: NCI/ADR-RES ovarian
# OVCAR-8 ovarian = system: OVCAR-8 ovarian
# SK-OV-3 ovarian = system: SK-OV-3 ovarian
# CCRF-CEM leukemia = system: CCRF-CEM leukemia
# OVCAR-5 ovarian = system: OVCAR-5 ovarian
# MCF7 breast = system: MCF7 breast
# HCT-116 colon = system: HCT-116 colon
# SW-620 colon = system: SW-620 colon
# SNB-19 CNS = system: SNB-19 CNS
# KM12 colon = system: KM12 colon
# SR leukemia = system: SR leukemia
# ACHN renal = system: ACHN renal
# MDA-MB-435 = system: MDA-MB-435
# K-562 leukemia = system: K-562 leukemia
# A549 NSCLC = system: A549 NSCLC
# M14 melanoma = system: M14 melanoma
# MDA-N = system: MDA-N
# 786-0 renal = system: 786-0 renal
# SK-MEL-28 melanoma = system: SK-MEL-28 melanoma
# SNB-75 CNS = system: SNB-75 CNS
# SF-268 CNS = system: SF-268 CNS
# HOP-62 NSCLC = system: HOP-62 NSCLC
# HT29 colon = system: HT29 colon
# RPMI-8226 leukemia = system: RPMI-8226 leukemia
# IGROV1 ovarian = system: IGROV1 ovarian
# NCI-H226 lung = system: NCI-H226 lung
# MALME-3M melanoma = system: MALME-3M melanoma
# OVCAR-3 ovarian = system: OVCAR-3 ovarian
# NCI-H23 lung = system: NCI-H23 lung
# A498 renal = system: A498 renal
# DU-145 prostate = system: DU-145 prostate
# LOX IMVI melanoma = system: LOX IMVI melanoma
# CAKI-1 renal = system: CAKI-1 renal
# HOP-92 NSCLC = system: HOP-92 NSCLC
# SK-MEL-2 melanoma = system: SK-MEL-2 melanoma
smiles,measurement,setting,value
Cc1c(C(=O)C(=O)c2ccccc2)c(C)c(C(=O)C(=O)c2ccccc2)c(C)c1C(=O)C(=O)c1ccccc1,TGI,SF-295 CNS,> 100 µM
same,TGI,MOLT-4 leukemia,> 100 µM
same,TGI,OVCAR-4 ovarian,> 100 µM
same,TGI,MDA-MB-231 breast,> 100 µM
same,TGI,SK-MEL-5 melanoma,> 100 µM
same,TGI,HCT-15 colon,> 100 µM
same,TGI,TK-10 renal,> 100 µM
same,TGI,SN12C renal,> 100 µM
same,TGI,HCC-2998 colon,> 100 µM
same,TGI,NCI-H522 lung,> 100 µM
same,TGI,HS 578T breast,> 100 µM
same,TGI,T-47D breast,> 100 µM
same,TGI,PC-3 prostate,> 100 µM
same,TGI,SF-539 CNS,> 100 µM
same,TGI,EKVX NSCLC,> 100 µM
same,TGI,UACC-257 melanoma,> 100 µM
same,TGI,COLO 205 colon,> 100 µM
same,TGI,U251 CNS,> 100 µM
same,TGI,HL-60(TB) leukemia,> 100 µM
same,TGI,UO-31 renal,> 100 µM
same,TGI,NCI-H460 lung,> 100 µM
same,TGI,NCI/ADR-RES ovarian,> 100 µM
same,TGI,OVCAR-8 ovarian,> 100 µM
same,TGI,SK-OV-3 ovarian,> 100 µM
same,TGI,CCRF-CEM leukemia,> 100 µM
same,TGI,OVCAR-5 ovarian,> 100 µM
same,TGI,MCF7 breast,> 100 µM
same,TGI,HCT-116 colon,> 100 µM
same,TGI,SW-620 colon,> 100 µM
same,TGI,SNB-19 CNS,> 100 µM
same,TGI,KM12 colon,> 100 µM
same,TGI,SR leukemia,> 100 µM
same,TGI,ACHN renal,> 100 µM
same,TGI,MDA-MB-435,> 100 µM
same,TGI,K-562 leukemia,> 100 µM
same,TGI,A549 NSCLC,> 100 µM
same,TGI,M14 melanoma,> 100 µM
same,TGI,MDA-N,> 100 µM
same,TGI,786-0 renal,> 100 µM
same,TGI,SK-MEL-28 melanoma,> 100 µM
same,TGI,SNB-75 CNS,> 100 µM
same,TGI,SF-268 CNS,> 100 µM
same,TGI,HOP-62 NSCLC,> 100 µM
same,TGI,HT29 colon,> 100 µM
same,TGI,RPMI-8226 leukemia,> 100 µM
same,TGI,IGROV1 ovarian,> 100 µM
O=[N+]([O-])c1ccc2nc3n(c2c1)C(c1c(F)cccc1F)SC3 (centres undefined),TGI,SF-295 CNS,> 100 µM
same,TGI,MOLT-4 leukemia,> 100 µM
same,TGI,MDA-MB-231 breast,> 100 µM
same,TGI,SK-MEL-5 melanoma,> 10 µM
same,TGI,TK-10 renal,> 100 µM
same,TGI,NCI-H226 lung,> 100 µM
same,TGI,MALME-3M melanoma,> 100 µM
same,TGI,SN12C renal,> 100 µM
same,TGI,HS 578T breast,> 100 µM
same,TGI,T-47D breast,> 10 µM
same,TGI,PC-3 prostate,> 100 µM
same,TGI,EKVX NSCLC,> 100 µM
same,TGI,UACC-257 melanoma,> 100 µM
same,TGI,U251 CNS,> 100 µM
same,TGI,NCI-H460 lung,> 100 µM
same,TGI,NCI/ADR-RES ovarian,> 100 µM
same,TGI,OVCAR-8 ovarian,> 10 µM
same,TGI,OVCAR-3 ovarian,> 100 µM
same,TGI,SK-OV-3 ovarian,> 100 µM
same,TGI,CCRF-CEM leukemia,> 100 µM
same,TGI,OVCAR-5 ovarian,> 100 µM
same,TGI,NCI-H23 lung,> 100 µM
same,TGI,MCF7 breast,> 100 µM
same,TGI,HCT-116 colon,> 100 µM
same,TGI,SW-620 colon,> 100 µM
same,TGI,SNB-19 CNS,> 100 µM
same,TGI,KM12 colon,> 100 µM
same,TGI,A498 renal,> 100 µM
same,TGI,SR leukemia,> 100 µM
same,TGI,DU-145 prostate,> 100 µM
same,TGI,ACHN renal,> 100 µM
same,TGI,K-562 leukemia,> 10 µM
same,TGI,A549 NSCLC,> 10 µM
same,TGI,MDA-N,> 100 µM
same,TGI,786-0 renal,> 100 µM
same,TGI,SK-MEL-28 melanoma,> 100 µM
same,TGI,LOX IMVI melanoma,> 100 µM
same,TGI,HOP-62 NSCLC,> 100 µM
same,TGI,HT29 colon,> 100 µM
same,TGI,RPMI-8226 leukemia,> 10 µM
same,TGI,IGROV1 ovarian,> 100 µM
CCP(=S)(CC)CCl,TGI,SF-295 CNS,> 100 µM
same,TGI,OVCAR-4 ovarian,> 100 µM
same,TGI,MDA-MB-231 breast,> 100 µM
same,TGI,SK-MEL-5 melanoma,> 100 µM
same,TGI,HCT-15 colon,> 100 µM
same,TGI,TK-10 renal,> 100 µM
same,TGI,NCI-H226 lung,> 100 µM
same,TGI,SN12C renal,> 100 µM
same,TGI,HCC-2998 colon,> 100 µM
same,TGI,NCI-H522 lung,> 100 µM
same,TGI,CAKI-1 renal,> 100 µM
same,TGI,HS 578T breast,> 100 µM
same,TGI,T-47D breast,> 100 µM
same,TGI,PC-3 prostate,> 100 µM
same,TGI,UACC-257 melanoma,> 100 µM
same,TGI,COLO 205 colon,> 100 µM
same,TGI,U251 CNS,> 100 µM
same,TGI,HL-60(TB) leukemia,> 100 µM
same,TGI,UO-31 renal,> 100 µM
same,TGI,NCI-H460 lung,> 100 µM
same,TGI,NCI/ADR-RES ovarian,> 100 µM
same,TGI,OVCAR-8 ovarian,> 100 µM
same,TGI,OVCAR-3 ovarian,> 100 µM
same,TGI,HOP-92 NSCLC,> 100 µM
same,TGI,SK-OV-3 ovarian,> 100 µM
same,TGI,CCRF-CEM leukemia,> 100 µM
same,TGI,OVCAR-5 ovarian,> 100 µM
same,TGI,NCI-H23 lung,> 100 µM
same,TGI,MCF7 breast,> 100 µM
same,TGI,HCT-116 colon,> 100 µM
same,TGI,SK-MEL-2 melanoma,> 100 µM
same,TGI,SW-620 colon,> 100 µM
same,TGI,SNB-19 CNS,> 100 µM
same,TGI,SR leukemia,> 100 µM
same,TGI,DU-145 prostate,> 100 µM
same,TGI,ACHN renal,> 100 µM
same,TGI,K-562 leukemia,> 100 µM
same,TGI,A549 NSCLC,> 100 µM
same,TGI,M14 melanoma,> 100 µM
same,TGI,MDA-N,> 100 µM
same,TGI,SK-MEL-28 melanoma,> 100 µM
same,TGI,SNB-75 CNS,> 100 µM
same,TGI,LOX IMVI melanoma,> 100 µM
same,TGI,HOP-62 NSCLC,> 100 µM
same,TGI,HT29 colon,> 100 µM
same,TGI,RPMI-8226 leukemia,> 100 µM
same,TGI,IGROV1 ovarian,> 100 µM
